Data on one molecule can be found in patent US10398676B2, “Use of alpha-hydroxy carbonyl compounds as reducing agents” (Morvus Technology Ltd, priority 2005, dated 2019).

A short description of series [1]: Chemical activation of tretazicar by DHA in bicarbonate buffer (Example 1). Particulars: 10 mM DHA, 100 μM tretazicar, 0.1M sodium bicarbonate buffer, 1 ml. Format: physicochemical. The procedure:
The assay was started by addition of 100 μL of 100 mM DHA in water to a mixture of tretazicar (100 μM) in 0.1M sodium bicarbonate buffer, pH 9 or pH10, to give a final volume of 1 ml. The mixture was incubated at 37° C. and aliquots (10 μL) were taken every 6 min and assayed immediately by HPLC [Partisil 10 SCX (42×150 mm) (Whatman, Maidstone, Kent, U.K.] eluted isocratically with 0.13 M sodium phosphate (pH 5) at 1.5 mL/min). The concentration of tretazicar was determined in each sample by reference of the corresponding peak area with an external standard, quantified by absorbance at 325 nm. Initial rates were calculated by curve fitting (FigP, Biosoft, Cambridge, U.K.). Reduction products were identified by retention time relative to an authentic standard.

The conditions of series [2]: humans, phase I; cited from earlier work.
The conditions of series [3]: bioactivated versus non-activated; cited from earlier work.
A short description of series [4]: DHA reduction of prodrugs and nitro compounds, HPLC initial rate (Examples 5 and 6). The following applies: 100 μM compound, 10 mM DHA, 37° C. Format: physicochemical. Here is the method: The assay mixture contained the compound under test (100 μM) and DHA (10 mM) in a final reaction volume of 1 mL of sodium phosphate buffer (of the required pH). The reaction was started by addition of DHA and the mixture is incubated at 37° C.

The subject of a further series is DNA. Particulars: cited from earlier work.

Some results are limits rather than exact numbers.

`NC(=O)c1cc(N2CC2)c([N+](=O)[O-])cc1[N+](=O)[O-]` [Tretazicar, 5-(aziridin-1-yl)-2,4-dinitrobenzamide]: in series [1] (pH 9, 37° C.), the “rate of tretazicar reduction by DHA at pH 9” value is reported as 0.92 nmol/min. The “rate of tretazicar reduction by DHA at pH 10” value in series [1] (pH 10, 37° C.) was determined as 0.69 nmol/min. In series [2], the MTD is listed as 37.5 mg/m^2 and the “dose safely administered without any significant toxicity” value is “up to 24 mg/m^2”. In series [3], the “dose modification resulting from bioactivation (increase in cytotoxicity)” value is on record as “up to 100,000 fold”. The “INITIAL RATE, 0.1 M PO4, pH7.5” value in series [4] (0.1 M PO4, pH7.5) was below 0.01 nmoles/min/mL. In addition, the “INITIAL RATE, 0.1 M PO4, pH8” value in series [4] (0.1 M PO4, pH8) came out at 0.158 nmoles/min/mL. Moreover, the “Initial Rate, pH 8” value in series [4] (pH 8) is given as 0.158 nmoles/min/mL. The “Initial Rate, pH 9” value in series [4] (pH 9) worked out at 0.933 nmoles/min/mL. For the same molecule, in series [4] (pH 10), the “Initial Rate, pH 10” value was 1.248 nmoles/min/mL. Moreover, in series [4] (pH 10.6), the “Initial Rate, pH 10.6” value came out at 5.801 nmoles/min/mL. The “increase in the amount of DNA-bound drug” value in the series on DNA (Walker cells compared to cells which cannot reduce tretazicar (Friedlos et al, 1992)) is listed as 10 fold. For the same molecule, the “interstrand crosslinks as share of total lesions / total DNA reactions” value in the series on DNA (literature values (Friedlos et al, 1992; Knox et al, 1986)) is given as “up to 70%”.
